Read-outs that look alike come from different tables or passages of the source. A value given as a limit tells only on which side of the number the result lay.

For 17 compounds, Ki results are on record in patent US7459450B2, “Neuropeptide receptor modulators” (Schering Corporation, priority 2004, dated 2008).

The target of the assay is T1, Human NPY Y1 receptors (Homo sapiens, UniProt P25929).
T1 construct: expressed in transfected cells; host or cells: CHO cells (membrane protein)
T1 sequence (P25929 1-384): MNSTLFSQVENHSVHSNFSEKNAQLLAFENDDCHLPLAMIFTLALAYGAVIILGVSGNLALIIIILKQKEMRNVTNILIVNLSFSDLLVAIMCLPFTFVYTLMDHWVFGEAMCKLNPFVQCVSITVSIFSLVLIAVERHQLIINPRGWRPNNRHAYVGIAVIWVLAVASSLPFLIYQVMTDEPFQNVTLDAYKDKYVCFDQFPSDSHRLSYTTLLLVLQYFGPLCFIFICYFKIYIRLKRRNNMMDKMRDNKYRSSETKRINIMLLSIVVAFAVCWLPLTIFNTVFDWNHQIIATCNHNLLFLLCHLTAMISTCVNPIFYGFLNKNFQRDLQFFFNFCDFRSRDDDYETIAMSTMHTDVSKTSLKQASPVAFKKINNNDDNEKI
As to the kind of experiment: NPY Receptor Binding Assay.

Where [1] appears, read: Procedure E compounds, rated A/B/C.
Setting [2] is: Procedure G compounds, rated A/B/C.
Where [3] appears, read: Procedure B compounds, rated A/B/C.

By Ki is commonly meant the dissociation constant of the complex between target and ligand, obtained from inhibition or displacement. Higher therefore signals weaker binding. `c1ccc(/N=C2\NCCCS2)c(CCNc2nc3ccccc3s2)c1` [Example 68] came in with a Ki under setting [1] of over 10 µM.

With `COc1cccc2sc(NCCc3ccc(/N=C4/N[C@@H](Cc5ccccc5)C(=O)S4)cc3)nc12` [Example 401], the Ki was over 10 µM. Turning to `c1ccc2sc(NCCc3ccc(Nc4nc(C56C[C@H]7C[C@@H](C5)C[C@@H](C6)C7)cs4)cc3)nc2c1` [Example 424], under setting [2], the inhibition constant Ki was over 10 µM. The compound `C[C@@H]1CS/C(=N\c2ccc(CCNc3nc4ccc(S(C)(=O)=O)cc4s3)cc2)N1` [Example 114] registered a Ki under setting [1] of 1 to 10 µM. Under setting [1], `Cc1ccc2nc(NCCc3ccc(/N=C4/NC(C)(C)CS4)cc3)sc2c1` [Example 227] yielded a Ki of under 1 µM. For the compound `O=C(O)c1csc(Nc2ccc(CCNc3nc4ccccc4s3)cc2)n1` [Example 435], the Ki under setting [2] is over 10 µM. `COc1ccc2nc(NCCc3ccc(/N=C4/N[C@@H](CC(=O)O)C(=O)S4)cc3)sc2c1` [Example 348] had a Ki of over 10 µM. `CCCC1SC(Nc2ccc(CCNc3nc4ccccc4s3)cc2)=NC1=O` (centres unmarked) [Example 446] displayed a Ki (Procedure H compounds, rated A/B/C) of over 10 µM. In turn, `Cc1cccc2sc(NCCc3ccc(/N=C4/NC(c5ccccc5)CCS4)cc3)nc12` (centres unmarked) [Example 208] gave a Ki under setting [1] of over 10 µM. Compound `O=C(c1ccccc1)N1CC2(CCCC2)N=C1Nc1ccc(CCNc2nc3ccccc3s2)cc1` [Example 32] gave a Ki under setting [3] of over 10 µM.

With `CCOC(=O)N1CC(c2ccccc2)N=C1Nc1ccc(CCNc2nc3ccccc3s2)cc1` (centres unmarked) [Example 27], the Ki under setting [3] was over 10 µM. Under setting [1], `c1ccc(C2CCS/C(=N/c3ccccc3CCNc3nc4ccccc4s3)N2)cc1` (centres unmarked) [Example 70] gave a Ki of over 10 µM. Regarding `Cc1cccc2sc(NCCc3ccc(/N=C4/N[C@@H](CC(=O)O)C(=O)S4)cc3)nc12` [Example 372], the inhibition constant Ki is over 10 µM.

With `O=C1S/C(=N/c2cccc(CCNc3nc4ccccc4s3)c2)N[C@H]1Cc1ccccc1` [Example 406], the Ki was over 10 µM. Still for that read-out and setting: the result for `O=C1S/C(=N\c2ccc(CCNc3nc4ccc([N+](=O)[O-])cc4s3)cc2)N2CCC[C@@H]12` [Example 341] reads over 10 µM. For `c1ccc(C2CCCC(Nc3ccc(CCNc4nc5ccccc5s4)cc3)=N2)cc1` (centres unmarked) [Example 449], the Ki (Procedure I compounds, column head blank, rated A/B/C) was 1 to 10 µM.

With `O=C1S/C(=N\c2ccc(CCNc3nc4ccc(Cl)cc4s3)cc2)N[C@H]1Cc1ccccc1` [Example 382], the Ki was over 10 µM.
